Measured values published in patent publication US20240335644A1, “TREATMENT OF A DISEASE OF THE GASTROINTESTINAL TRACT WITH AN IMMUNE MODULATORY AGENT RELEASED USING AN INGESTIBLE DEVICE” (BIORA THERAPEUTICS, INC., priority 2017, published 2024).

Legend:
[1] = Tissue, plasma, rectal and GI content pharmacokinetics of tacrolimus, oral vs intra-cecal ingestible device (Example 10); parameters: species or system Yorkshire-Cross farm swine; settings: in vivo
Protocol: (§1) No further randomization procedure was employed.
Animals in Group 1 received an ingestible device containing 0.8 mL of vehicle solution (8000 alcohol, 2000 HCO-60). Animals in Group 2 received orally […] liquid formulation of tacrolimus at 4 mg/0.8 mL per animal (Prograf: 5 mg/mL). Animals in Group 3 received intra-cecally an ingestible device containing tacrolimus at 1 mg in 0.8 mL per ingestible device. Animals in Group 4 received intra-cecally an ingestible device containing tacrolimus at 2 mg in 0.8 mL per ingestible device. Animals in Group 5 received intra-cecally an ingestible device containing tacrolimus at 4 mg in 0.8 mL per ingestible device. To control for potential confounding effects of the surgery, all groups fast on Day −11 at least 24 hr before being subjected to anesthesia followed by surgical placements of a cecal port by a veterinary surgeon at Day −10. All animals were fasted for at least 12 hr prior to dosing on Day 1. Animals were dosed via either intra-cecal dosing (IC) or oral dosing (PO) at Day 1 (between 6-8 p.m.). All animals resumed feeding at approximately 4 hours after dose (11-12 p.m. after dosing).
Animals in Group 1 (Vehicle Control) were administered a single intra-cecal ingestible device containing 0.8 mL Vehicle solution (80% alcohol, 20% castor oil (HCO-60) on Day 1. On Day −10 the animals were anesthetized, and a veterinary surgeon surgically placed an intra-cecal port in each animal. On Day 1, each animal was placed into a sling then a single intra-cecal ingestible device containing 0.8 mL vehicle solution (80% alcohol, 20% castor oil (HCO-60)) is introduced by the veterinary surgeon into the cecum via the cecal port in each animal. Following ingestible device placement, the animals were removed from the slings and placed back into their pens with water. All animals resumed feeding at approximately 4 hours after dose. […] A total of 60 samples were collected.
Approximately 200-400 mg of rectal content were collected, if available, with a fecal swab (Copan Diagnostics Nylon Flocked Dry Swabs, 502CS01). The fecal swab was pre-weighed and weighed after collection in the collection tube (Sterile Tube and Cap No Media, PFPM913S), and the sample weight was recorded. […]
For tissue necropsy, small intestine fluid and cecal fluid were collected separately from all the animals into two separate square plastic bottles, and stored at −20° C. The length and diameter of the cecum and the colon was measured from one animal in each group and recorded for reference. […] All samples were weighed, and the tissue sample weights were recorded. […] Around 3 grams of the total punched sample were collected into a pre-weighed 15-mL conical tube, and the tissue weight was recorded. […]

[2] = Pharmacokinetic study of oral vs intra-cecal tacrolimus: blood, rectal content, GI tissue and luminal content, tissue/plasma ratios (Example 13); parameters: species or system Yorkshire-Cross farm swine; settings: female, Yorkshire-Cross, swine, in vivo, 0.09 mg/kg
Text: as §1

Compound: C=CC[C@@H]1/C=C(\C)C[C@H](C)C[C@H](OC)[C@H]2O[C@@](O)(C(=O)C(=O)N3CCCC[C@H]3C(=O)O[C@H](/C(C)=C/[C@@H]3CC[C@@H](O)[C@H](OC)C3)[C@H](C)[C@@H](O)CC1=O)[C@H](C)C[C@@H]2OC [tacrolimus]
- luminal content (spiral, transverse, and distal colon) concentrations [1]: Significantly higher
- mean concentration of tacrolimus in the cecum tissue and the proximate colon tissue [1]: higher
- tissue (spiral and transverse colon) concentrations [1]: Significantly higher
- level of tacrolimus in tissue ([1]; po): No measurable level
- Ratio Tissue(mean) (ng/g)/AUG(0-12 hr) (ng · hr/ml) ([2]; 12 h): 0
- Ratio Tissue(mean) (ng/g)/Trough(12 hr)(ng/ml) ([2]; 12 h): 0
- Trough (12 hr) ([2]; 12 h): 0.568 ng/mL
- concentration at 12 h ([2]; Trough (12 hr)): 0.568 ± 0.291 ng/mL
